{
  "source": "patent US6525000B1",
  "about": "“Method for producing anellated triazoles and new anellated triazoles and their use” (BASF Aktiengesellschaft, priority 1998, dated 2003)",
  "assay_in_all_cases": "greenhouse post-emergence herbicidal test",
  "type_in_all_cases": "in vivo",
  "key": {"Veronica spp.": {"system": "Veronica spp.", "settings": "VERSS, 100 = complete destruction, 0 = no damage", "description": "(§1) The seeds of the test plants were sown separately for each species. For the post-emergence treatment, the test plants were first grown to a plant height of from 3 to 15 cm, depending on plant habit, and only then treated with the active ingredients which had been suspended or emulsified in water. For this purpose, the test plants were either sown directly and grown in the same containers, or they were first grown separately as seedlings and transplanted into the test containers a few days prior to treatment. The rate of application for the post-emergence treatment was 0.0313 or 0.0156 kg of a.s./ha. Dependingon the species, the plants were kept at from 10-25° C. or 20-35° C. The test period extended over 2 to 4 weeks. During this time, the plants were tended, and their response to the individual treatments was evaluated. Evaluation was carried out using a scale from 0 to 100. 100 means no emergence of the plants, or complete destruction of at least the ariel plants, and 0 means no damage or normal course of growth. The plants used in the experiments belonged to the following species: [table]"}, "Solanum nigrum": {"system": "Solanum nigrum", "settings": "SOLNI, 100 = complete destruction, 0 = no damage", "description": "as §1"}, "Abutilon theoprasti": {"system": "Abutilon theoprasti", "settings": "ABUTH, 100 = complete destruction, 0 = no damage", "description": "as §1"}, "Polygonum persicaria": {"system": "Polygonum persicaria", "settings": "POLPE, 100 = complete destruction, 0 = no damage", "description": "as §1"}, "Chenopodium album": {"system": "Chenopodium album", "settings": "CHEAL, 100 = complete destruction, 0 = no damage", "description": "as §1"}, "Galium aparine": {"system": "Galium aparine", "settings": "GALAP, 100 = complete destruction, 0 = no damage", "description": "as §1"}},
  "data": [
    {"smiles": "CON=Cc1cc(N2C(=O)C3COCNN3C2=O)c(F)cc1Cl", "note": "(stereo not drawn) [Ex. 1d, 8-(4′-chloro-2′-fluoro-5′-methoxyiminomethylphenyl)-4-oxa-7,9-dioxo-1,2,8-triaza[4.3.0.]nonane]", "values": [
      {"measurement": "herbicidal activity, evaluation on a scale from 0 to 100", "setting": "Veronica spp.; 0.0156 kg of a.s./ha", "result": 100},
      {"measurement": "herbicidal activity, evaluation on a scale from 0 to 100", "setting": "Veronica spp.; 0.0313 kg of a.s./ha", "result": 100},
      {"measurement": "herbicidal activity, evaluation on a scale from 0 to 100", "setting": "Solanum nigrum; 0.0156 kg of a.s./ha", "result": 100},
      {"measurement": "herbicidal activity, evaluation on a scale from 0 to 100", "setting": "Solanum nigrum; 0.0313 kg of a.s./ha", "result": 100},
      {"measurement": "herbicidal activity, evaluation on a scale from 0 to 100", "setting": "Abutilon theoprasti; 0.0156 kg of a.s./ha", "result": 100},
      {"measurement": "herbicidal activity, evaluation on a scale from 0 to 100", "setting": "Abutilon theoprasti; 0.0313 kg of a.s./ha", "result": 100},
      {"measurement": "herbicidal activity, evaluation on a scale from 0 to 100", "setting": "Polygonum persicaria; 0.0156 kg of a.s./ha", "result": 98},
      {"measurement": "herbicidal activity, evaluation on a scale from 0 to 100", "setting": "Polygonum persicaria; 0.0313 kg of a.s./ha", "result": 98},
      {"measurement": "herbicidal activity, evaluation on a scale from 0 to 100", "setting": "Chenopodium album; 0.0156 kg of a.s./ha", "result": 98},
      {"measurement": "herbicidal activity, evaluation on a scale from 0 to 100", "setting": "Chenopodium album; 0.0313 kg of a.s./ha", "result": 98},
      {"measurement": "herbicidal activity, evaluation on a scale from 0 to 100", "setting": "Galium aparine; 0.0156 kg of a.s./ha", "result": 98},
      {"measurement": "herbicidal activity, evaluation on a scale from 0 to 100", "setting": "Galium aparine; 0.0313 kg of a.s./ha", "result": 98}
    ]}
  ]
}
